# Tested on: pS6RP
# Experiment: In-cell Western assay, pS6RP, U87MG cells
# Type: cell-based
# Settings: Homo sapiens, U-87 MG, read-out: inhibition of pS6RP, IC50
# Protocol: Cells from human prostate cancer cell line PC3 (American Type Culture Collection (ATCC), Manassas, Va. 20108 USA) were seeded at an optimal density of 22,000 cell/well in 96-well plates containing Ham's F12K medium (90 μL) and incubated overnight. The compound dilutions were carried out in 100% DMSO followed by a dilution in the medium. Test compounds were added in serial dilutions to the wells and incubated for 2 hours. The cells were washed and fixed with 4% paraformaldehyde. After incubation at room temperature for 1 hour in the dark, blocking was done for 2 hours at room temperature. […] IC50 values were calculated using a sigmoidal dose-response curve fit in GraphPad Prism® v5 software.
# In-cell Western assays for pAkt(T308) and pS6RP were also carried out in a glioma cancer cell line with a PTEN null mutation (U87MG cells), in a similar manner to the protocol described above for PC3 cells, in order to assess the ability of the compounds to inhibit the Akt-pathway in a glioma cancer cell line. […] Compounds of the invention cause inhibition of pAkt(T308), pAkt(S473) and pS6RP in U87MG, BT474 and T47D cell lines as determined by these assays.
smiles,measurement,value
"CC(=O)Nc1cccc(-c2cnc3c(N4CCOCC4)nc(-c4cnc(N)nc4)nc3c2)c1 [Example 3, N-(3-(2-(2-Aminopyrimidin-5-yl)-4-morpholinopyrido[3,2-d]pyrimidin-7-yl)-phenyl)acetamide]",IC50,< 0.5 µM

# Reference: US9145411B2, “Substituted amino-pyrimidine derivatives” (Asana Biosciences, LLC, priority 2012, dated 2015)
